The test system of assay [1] is M. tuberculosis H37Rv and mmpL3 mutants DR1-DR9. In kind it is cell-based.
The subject of assay [2] is M. bovis BCG and mmpL3 mutants M1, M8. In kind it is cell-based.

As for `Cc1ccc(-c2cc(CN3CCOCC3)c(C)n2-c2ccc(F)cc2)cc1` [Compound 5, 2-Methyl-3-[(morpholin-4-yl)-methyl]-5-[4-(methyl)phenyl]-1-[4-(fluoro)phenyl]-1H-pyrrole], the “MIC for M. tuberculosis mutants with amino acid change V681I” value in assay [1] came to 5.4 µM.
Take `CCc1ccc(-c2cc(CN3CCOCC3)c(C)n2-c2ccc(F)cc2)cc1` [Compound 8, 2-Methyl-3-[(morpholin-4-yl)-methyl]-5-[4-(ethyl)phenyl]-1-[4-(fluoro)phenyl]-1H-pyrrole]: in assay [1], the “MIC for M. tuberculosis isolates resistant to compound 8” value is reported as 0.66 µM. In addition, the “MIC for M. bovis BCG mutants resistant to compound 8” value in assay [2] stood at 0.63 µM.

These data come from PMC3578785, “Improved BM212 MmpL3 Inhibitor Analogue Shows Efficacy in Acute Murine Model of Tuberculosis Infection” (PLoS ONE, 2013).
